Literature values in patent publication US20210267985A1, “COMPOSITIONS AND METHODS FOR INDUCING ENHANCED BRAIN FUNCTION” (priority 2020, published 2021).

Settings: in vivo

In the case of `Cn1c(=O)c2c(ncn2C)n(C)c1=O` [caffeine], the half-life is given as 4 to 6 h.
